Data: ChEMBL document CHEMBL4308916, “Leucoflavonine, a new bioactive racemic flavoalkaloid from the leaves of Leucosceptrum canum” (Bioorg Med Chem, 2019)
Active and inactive are the calls of the source. The rule behind the calls is not given here.

Assays:
RAW264.7 [1] = test: Anti-inflammatory activity in mouse RAW264.7 cells assessed as reduction in LPS-induced IL-6 production after 48 hrs by ELISA; format: functional, cell-based; settings: RAW264.7, 48 h
RAW264.7 [2] = test: Anti-inflammatory activity in mouse RAW264.7 cells assessed as reduction in LPS-induced TNF-alpha production after 48 hrs by ELISA; format: functional, cell-based; settings: RAW264.7, 48 h
NCI-H1975 [3] = test: cells; settings: Homo sapiens, NCI-H1975, 72 h
Description: Cytotoxicity against human NCI-H1975 cells after 72 hrs by MTT assay

Acetylcholinesterase [4] = biological target: T1, Acetylcholinesterase (Homo sapiens, UniProt P22303); test: Inhibition of AChE (unknown origin) using acetylthiocholine iodide as substrate preincubated for 20 mins followed by substrate addition and measured every 30 secs for 1 hr by Ellman's assay
PC-9 [5] = test: Cytotoxicity against human PC9 cells after 72 hrs by MTT assay; format: cell-based; settings: PC-9, 72 h
HepG2 [6] = test: cells; settings: Homo sapiens, HepG2, 72 h
Description: Cytotoxicity against human HepG2 cells after 72 hrs by MTT assay

Jurkat [7] = test: cells; settings: Homo sapiens, 48 h
Description: Immunosuppressive activity in human Jurkat cells assessed as reduction in PHA + PMA-induced IL-2 production after 48 hrs by ELISA

Jurkat [8] = test: Immunosuppressive activity in human Jurkat cells assessed as reduction in PHA + PMA-induced IL-2 production at 20 uM after 48 hrs by ELISA; format: functional, cell-based
Acetylcholinesterase [9] = biological target: T1, Acetylcholinesterase; test: Inhibition of AChE (unknown origin) at 250 uM using acetylthiocholine iodide as substrate preincubated for 20 mins followed by substrate addition and measured every 30 secs for 1 hr by Ellman's assay
HepG2 [10] = test: Cytotoxicity against human HepG2 cells at 80 uM after 72 hrs by MTT assay; format: cell-based; settings: hepg2, 72 h
NCI-H1975 [11] = test: Cytotoxicity against human NCI-H1975 cells at 80 uM after 72 hrs by MTT assay; format: cell-based; settings: nci-h1975, 72 h
PC-9 [12] = test: Cytotoxicity against human PC9 cells at 80 uM after 72 hrs by MTT assay; format: cell-based; settings: pc-9, 72 h

T1 sequence (P22303 whole entry): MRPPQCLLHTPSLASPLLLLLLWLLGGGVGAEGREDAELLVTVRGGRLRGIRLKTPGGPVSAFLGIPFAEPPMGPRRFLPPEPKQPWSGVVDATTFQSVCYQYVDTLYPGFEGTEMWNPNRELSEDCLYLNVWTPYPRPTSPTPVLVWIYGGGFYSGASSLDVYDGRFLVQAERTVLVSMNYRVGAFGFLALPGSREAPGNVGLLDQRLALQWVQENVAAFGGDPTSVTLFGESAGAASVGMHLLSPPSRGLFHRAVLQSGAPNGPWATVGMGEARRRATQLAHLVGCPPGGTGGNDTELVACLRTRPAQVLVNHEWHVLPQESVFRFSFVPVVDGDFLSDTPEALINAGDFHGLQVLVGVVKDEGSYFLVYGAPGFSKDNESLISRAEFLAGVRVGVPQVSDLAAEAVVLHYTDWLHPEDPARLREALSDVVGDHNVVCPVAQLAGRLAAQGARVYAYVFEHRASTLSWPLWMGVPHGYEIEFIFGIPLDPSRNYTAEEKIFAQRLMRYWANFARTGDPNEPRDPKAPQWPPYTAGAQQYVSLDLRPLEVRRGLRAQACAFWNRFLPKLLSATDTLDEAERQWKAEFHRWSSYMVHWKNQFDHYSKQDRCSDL

COc1ccc(-c2cc(=O)c3cc(OC)c(O)c([C@H]4CCC(=O)N4)c3o2)cc1
IC50 (RAW264.7 [1]): > 20 µM
IC50 (RAW264.7 [2]): > 20 µM
IC50 (NCI-H1975 [3]): > 80 µM
IC50 (Acetylcholinesterase [4]): 18.3 µM
IC50 (PC-9 [5]): > 80 µM
IC50 (HepG2 [6]): 52.9 µM
IC50 (Jurkat [7]): 16.5 µM

C[C@@H]1C[C@H]2[C@@H]3CCC4=CC(=O)C=C[C@]4(C)[C@@]3(F)[C@@H](O)C[C@]2(C)[C@@]1(O)C(=O)CO [DEXAMETHASONE]
IC50 (RAW264.7 [1]): 9.4 µM
IC50 (RAW264.7 [2]): 1.2 µM

COc1ccc(-c2cc(=O)c3c(O)c(OC)c(O)cc3o2)cc1 [PECTOLINARIGENIN]
IC50 (RAW264.7 [1]): > 20 µM
inhibition (Jurkat [8]): inactive
IC50 (RAW264.7 [2]): > 20 µM
IC50 (NCI-H1975 [3]): 76.6 µM
IC50 (Acetylcholinesterase [4]): > 250 µM
IC50 (PC-9 [5]): > 80 µM
IC50 (HepG2 [6]): 18.1 µM
IC50 (Jurkat [7]): > 20 µM
inhibition (Acetylcholinesterase [9]): 37.8%

COc1ccc(-c2cc(=O)c3cc(OC)c(O)c([C@@H]4CCC(=O)N4)c3o2)cc1
Activity (HepG2 [10]): Non-Toxic
Activity (NCI-H1975 [11]): Non-Toxic
IC50 (RAW264.7 [1]): > 20 µM
IC50 (RAW264.7 [2]): > 20 µM
IC50 (NCI-H1975 [3]): > 80 µM
IC50 (Acetylcholinesterase [4]): 68 µM
Activity (PC-9 [12]): Non-Toxic
IC50 (PC-9 [5]): > 80 µM
IC50 (HepG2 [6]): > 80 µM
IC50 (Jurkat [7]): > 20 µM

CC(=O)O[C@H]1C(=O)[C@@]2(C)[C@H]([C@H](OC(=O)c3ccccc3)[C@]3(O)C[C@H](OC(=O)[C@H](O)[C@@H](NC(=O)c4ccccc4)c4ccccc4)C(C)=C1C3(C)C)[C@]1(OC(C)=O)CO[C@@H]1C[C@@H]2O [PACLITAXEL]
IC50 (NCI-H1975 [3]): 3.9 µM
IC50 (PC-9 [5]): 3.7 µM
IC50 (HepG2 [6]): 10.3 µM
